In patent US6416753B1, “Method for modulating apoptosis” (The General Hospital Corporation, priority 1996, dated 2002):
Blank lines part the entries; values can stand above or below the substance they belong to.

Assays:
HeLa cells [1] = assay: Hypoxia-induced apoptosis of HeLa cells, viability by trypan blue exclusion; type: cell-based
Experimental: (§1) Hypoxia-induced apoptosis was studied as follows. HeLa and HeLa/CrmA cells (Miura, M., et al., Proc. Natl. Acad. Sci. USA. 92:8318-8322, 1995) were seeded in 35 mm dishes at a density of 6×10^4/dish in DMEM/10% FCS and grown overnight. The medium was then changed and factors were added (IL-1Ra, R & D, Minneapolis, Minn.), IL-1 antibody (Calbiochem, San Diego, Calif.), or IL-1 type-1 receptor antibody (R & D, Minneapolis, Minn.). Dishes were placed in an anaerobic chamber with a BBL GasPack Plus (Becton-Dickenson, USA), which reduced the oxygen concentration to less than 100 p.p.m. within 90 minutes. After 16 hours, cells were removed from the chamber, immediately trypsinized and scored for viability by trypan blue exclusion. Inhibition of ^125I IL-1β binding by IL-1Ra which was added for 2 hrs at 37° C. After addition of BSA (1 mg/ml) to the medium, cells were incubated at 4° C. for 15 minutes, and then ^125IL-1β (100 ng/ml) was added at 4° C. for 1 hr. For detection of ^125IL-1β binding, cells were treated with 50 mM glycine-HCl, pH 2.6 for 1 min, and quantitated by γ-counting.
Hypoxia was produced as described in Example 1. IL-1β (100 ng/ml) was added as the cells were placed into the hypoxia chamber (90 min. are required to reach oxygen concentrations of 100 p.p.m.). […] Cells were then treated as above with glycine and radioactivity scored.

IL-1 receptor [2] = biological target: T1, IL-1 receptor (Homo sapiens, UniProt P14778); assay: Inhibition of 125I IL-1β receptor binding in HeLa cells; conditions: IL-1Ra added for 2 hrs at 37° C.
T1 construct: endogenous in cells; host or cells: HeLa cells
T1 sequence (P14778 18-569): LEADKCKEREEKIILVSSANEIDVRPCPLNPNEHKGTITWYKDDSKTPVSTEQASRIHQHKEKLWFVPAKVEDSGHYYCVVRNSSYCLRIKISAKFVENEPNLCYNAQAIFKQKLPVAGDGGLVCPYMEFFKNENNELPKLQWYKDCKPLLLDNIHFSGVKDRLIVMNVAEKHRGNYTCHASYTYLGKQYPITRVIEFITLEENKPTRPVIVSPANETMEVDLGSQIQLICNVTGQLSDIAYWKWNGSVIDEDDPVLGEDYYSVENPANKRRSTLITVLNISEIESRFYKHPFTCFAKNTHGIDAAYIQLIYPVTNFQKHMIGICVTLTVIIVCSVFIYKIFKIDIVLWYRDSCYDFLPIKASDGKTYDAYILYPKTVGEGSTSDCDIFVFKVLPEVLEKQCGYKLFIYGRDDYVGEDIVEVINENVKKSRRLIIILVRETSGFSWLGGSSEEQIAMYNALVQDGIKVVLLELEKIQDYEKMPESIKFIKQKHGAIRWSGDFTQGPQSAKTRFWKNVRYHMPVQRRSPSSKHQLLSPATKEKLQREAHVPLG
Experimental: as §1

DRG neurons = assay: Trophic factor deprivation of primary DRG neurons, healthy neurons counted; type: cell-based, mouse; conditions: for Inhibition of trophic factor withdrawal-induced apoptosis: 100 ng/ml
Experimental: Neuronal trophic factor deprivation was assayed as follows. Post-natal day 1 mouse DRG neurons were isolated, dissociated with trypsin for one hour at 37° C., and plated in a 8 camber poly-lysine/laminin (Sigma, St. Louis, Mo.) coated slide. Wells were seeded at approximately 1000 neurons/well (8 wells/mouse). Neurons were cultured in Ham's nutrient F-12 supplemented with 20% FCS (Biowhittaker, Walkesvill, Md.), NGF (200 ng/ml) (Sigma, St. Louis, Mo.), BDNF (100 ng/ml) (Preprotech, Rocky Hill, N.J.), glutamine (2 mM), and penicillin/streptomycin. The medium was replaced daily with either trophic factor containing medium (TF(+))=20% FCS and NGF (200 ng/ml), or trophic factor deficient medium, TF(−)=serum and NGF-free medium in the presence of saturating concentration of mouse NGF monoclonal antibody (100 ng/ml) (Boehringer Mannheim, Indianapolis, Ind.), and IL-IRA (100 ng/ml unless otherwise indicated in the text). Healthy neurons were counted under a phase contrast microscope 24 and 48 hours following the media change.

L929 cells = assay: TNF-α induced cell death of L929 cells, trypan blue exclusion; type: cell-based; conditions: IL-1Ra 40 ng/ml
Experimental: After 12 hours, the cells were washed 3 times with serum free DMEM, and hydroxyurea (HU) (2.5 mM) (Sigma, St. […] Natl. Acad. Sci. U.S.A. 91: 3754 (1994)). After five hours, IL-1Ra (40 ng/ml) was added to the appropriate wells, and one hour later either TNF-α or mature IL1β were added. Twenty-four hours later, IL-1Ra was again added to the appropriate wells, and cell death was evaluated by trypan blue exclusion 60 hours after the initial addition of HU. Each condition was done three times in duplicate and 200 cells counted per well. For the photographs cells were grown on 2 well slides, and for nuclear morphology determination cells were fixed in 4% paraformaldehyde and incubated with Hoechst dye #33258 (10 μg/ml) (Sigma, St. Louis, Mo.).

HeLa cells [3] = assay: TNF-α induced cell death of hydroxyurea (G1/S) arrested HeLa cells; type: cell-based; conditions: HU treated, G1/S phase arrested HeLa cells; IL-1Ra 40 ng/ml
Experimental: (§2) HeLa, HeLa/CrmA, and L929 cells were seeded (2×10^4) in a 24 well plate and grown overnight in DMEM with 10% FCS. After 12 hours, the cells were washed 3 times with serum free DMEM, and hydroxyurea (HU) (2.5 mM) (Sigma, St. Louis, Mo.) was added to the HeLa and HeLa/CrmA cells Meikrantz, W., et al., Proc. Natl. Acad. Sci. U.S.A. 91: 3754 (1994)). After five hours, IL-1Ra (40 ng/ml) was added to the appropriate wells, and one hour later either TNF-α or mature IL1β were added. Twenty-four hours later, IL-1Ra was again added to the appropriate wells, and cell death was evaluated by trypan blue exclusion 60 hours after the initial addition of HU. Each condition was done three times in duplicate and 200 cells counted per well. For the photographs cells were grown on 2 well slides, and for nuclear morphology determination cells were fixed in 4% paraformaldehyde and incubated with Hoechst dye #33258 (10 μg/ml) (Sigma, St. Louis, Mo.).

HeLa cells [4] = assay: HeLa cell death induced by TNF-α and cycloheximide; type: cell-based; conditions: data not shown
HeLa cells [5] = assay: Mature IL-1β induced cell death of hydroxyurea (G1/S) arrested HeLa cells; type: cell-based; conditions: G1/S phase arrested HeLa cells
Experimental: as §2

COS cells = assay: Cell death of COS cells transfected with Ice-lacZ / Ich-1L-lacZ / proIL-1β, round blue cells scored; type: cell-based
Experimental: COS cells were plated (2×10^4) in 6-well plates in DMEM with 10% FCS. After 12 hours the wells were washed with serum and antibiotic free medium, and transfected using lipofectamine with either Ice-lacZ, Ich-1L-lacZ, βactin-lacZ(1 μg) or with proIL-1β (0.5 μg) for 3 hours. The sequence for Ich-1L is shown in FIG. 7 and the sequences of human ICE and pro- IL-1β are found respectively in Thornsberry et al., Nature 356:768-774 (1992) and in J. Immunol. 137:3644-3648, 1986. The medium was then removed and DMEM with 10% FCS added. IL-1Ra (40 ng/ml) was then added to the appropriate wells, and after one hour IL-1β (100 ng/ml) was added. X-gal reaction was performed 36 hours following the transfection and percentage of round blue (dead) cells were scored (Miura, M., et al., Cell 75: 653 (1993))

cerebral infarct = conditions: rat model; Relton & Rothwell 1992; cited from earlier work
IL-1 receptor [6] = biological target: T1, IL-1 receptor; assay: IL-1 receptor binding assay (receptor down-regulation) in HeLa cells; type: cell-based; conditions: 100 ng/ml 125I IL-1β
Experimental: Hypoxia was produced as described in Example 1. IL-1β (100 ng/ml) was added as the cells were placed into the hypoxia chamber (90 min. are required to reach oxygen concentrations of 100 p.p.m.). IL-1 receptor binding assay: HeLa cells (10^6) were seeded in 10 cm dishes and grown overnight. Media was then exchanged containing 1 mg/ml of BSA and 100 ng/ml of ^125I IL-1β at 4° C. for 1 hr. After washing twice with cold medium, the cells were incubated with fresh warm medium at 37° C. for 0, 30, 60 and 120 minutes. Cells were then treated as above with glycine and radioactivity scored.

HeLa and L929 = assay: Apoptosis of healthy proliferating cells exposed to mature IL-1β alone; type: cell-based; conditions: most healthy proliferating cells including HeLa and L929
[7] = biological target: IL-1 type-1 receptor on HeLa cells (UniProt P14778); assay: cell-based or functional assay

- Blocking of 125I-IL-1β binding (IL-1 receptor [2]): blocks
Substance: IL-1Ra: a naturally occurring cytokine which binds to the IL-1 receptor, blocking IL-1 mediated signal transduction
- Inhibition of hypoxia-induced cell death (HeLa cells [1]; HeLa cells, 16 hours hypoxia): inhibited hypoxia-induced cell death
- Inhibition of neuronal apoptosis (DRG neurons; 40 ng/ml, 24 hours): 43.5%
- Inhibition of trophic factor withdrawal-induced apoptosis (DRG neurons; 24 hours): 69.2%
- Inhibition of trophic factor withdrawal-induced apoptosis (DRG neurons; 48 hours): 37.8%
- Protection from TNF-α induced death (L929 cells): up to 64.9%
- Inhibition of TNF-α induced HeLa cell death (HeLa cells [3]): 56.0%
- Protection from death induced by TNF-α and cycloheximide (HeLa cells [4]): protected
- Inhibition of mature IL-1β induced cell death (HeLa cells [5]): inhibited
- Inhibition of death of COS cells expressing Ice-lacZ or Ich-1L-lacZ with proIL-1β, or with extracellular TNF-α or mature IL-1β (COS cells; IL-1Ra 40 ng/ml): significantly inhibited
- Reduction of cerebral infarct size following ischemia (cerebral infarct): 50%

- Down-regulation of the IL-1 receptor (IL-1 receptor [6]): significantly down-regulated
Substance: IL-1β: mature 17.5 kD interleukin-1β, cytokine produced by ICE cleavage of prointerleukin-1β
- Survival of HeLa cells preincubated with exogenous IL-1β under hypoxia (HeLa cells [1]; IL-1β 100 ng/ml added as cells were placed into the hypoxia chamber, control 10.1%): 58.7%
- Cell death induced by exogenous mature IL-1β (HeLa cells [5]; 100 ng/ml): 83.7%
- Induction of apoptosis in COS cells by the exogenous cytokine alone (COS cells; COS cells without Ice/Ich-1L transfection): did not induce apoptosis
- Induction of cell death in Ice-lacZ or Ich-1L-lacZ transfected COS cells (COS cells; extracellular cytokine, 36 hours after transfection): efficiently induced cell death
- Induction of apoptosis of healthy proliferating cells (HeLa and L929): does not induce apoptosis

Substance: mature IL-1β (from UniProt P01584 117-269) (ligand)
- cell death of G1/S phase arrested (HU treated) HeLa cells treated with exogenous mature IL-1β [7]: 83.7%
- survival of HeLa cells under hypoxia after preincubation with exogenous IL-1β (100 ng/ml) [7]: 58.7%
